Reference: US7504481B2, “TRP channel family member, LTRPC3 polypeptides” (Bristol-Meyers Squibb Company, priority 2001, dated 2009)
One block for each molecule: values may come before it.

What was measured:
HEK 293 cells = experiment: Depletion of intracellular Ca2+ stores in LTRPC3-HA- and vector-transfected HEK 293 cells (FLIPR); type: cell-based; conditions: no external Ca^2+
[1] = tested on: endogenous Ca^2+ entry pathway in HEK 293 cells; experiment: FLIPR Fluo-4 Ca2+ entry in vector-transfected HEK 293 cells (endogenous pathway); type: cell-based; conditions: 100 μM Gd^3+
Procedure: (§1) Panels A, C and E show results obtained for vector-transfected cells, while Panels B, D and F show results obtained for TRPM3-transfected cells. […] Cells loaded with Fluo-4 were incubated in 1 mM Ca^2+ solution and treated with 100 μM of Gd^3+ (red) or without blockers (black) for 10 min prior to the addition of 10 mM Ca^2+ to the bath solution as indicated. […] Cells loaded with Fluo-4 were incubated in a nominally Ca^2+-free media and treated without blockers (black) or with 100 μM of Gd^3+ (red) for 10 min prior to the addition of 2 μM TG (Panels C and D, first arrow) or 50 μM CCh (Panels E and F, first arrow), Ca^2+ entry was stimulated by the bath addition of […] (second arrow). Representative traces from one of three independent experiments are shown; each trace is the mean of 12 wells per condition. Physiometric methods were performed as described in Example 10 herein.
(§2) Moreover, physiometric studies have shown that LTRPC3 is a functional Ca^2+ permeable channel (see FIGS. 18 and 19, and Example 7). LTRPC3 function was assessed using a Fluorometric Imaging Plate Reader (FLIPR™) that measures real-time intracellular fluorescence changes. Cells transiently transfected with vector or LTRPC3-HA were loaded with the cytoplasmic Ca^2+ indicator Fluro-4 in a 1 mM Ca^2+ solution. […] The non-transfected cells were indistinguishable from the vector-transfected cells (data not shown). Therefore, LTRPC3 is a constitutively active channel capable of mediating Ca^2+ influx.
To further address the mechanism of LTRPC3-mediated Ca^2+ entry, similar Ca^2+ addition experiments were performed on transfected cells incubated (˜30 min) in a nominally Ca^2+-free solution. Previous studies have shown that lowering extracellular Ca^2+ concentration below physiological levels can deplete intracellular Ca^2+ stores in many cell types including HEK 293 (EMBO J. 17, 4274-4282, (1998)). […]
Additional experiments were performed to further confirm the Ca^2+ store-depleted activation of LTRPC3 using Gd^3+. […] Gd^3+ reduced fluorescence units in vector-transfected cells from 1470±140 to −58±8 and in LTRPC3-transfected cells from 6000±322 to 2080±199 (n=12). Fluorescence values were measured 150 seconds after adding 10 mM Ca^2+ and percent blockade was calculated as 1 minus FLTRPC3−FVector in the presence of Gd^3+ divided by FLTRPC3−FVector without blocker. […] Gd^3+ reduced peak fluorescence after 10 mM Ca^2+ addition in vector-transfected cells from 26444±2410 to 1316±60 and in LTRPC3-transfected cells from 37676±2425 to 6783±250 (see FIGS. 22C and D, respectively; n=12). […] Gd^3+ reduced peak Ca^2+ fluorescence in vector-transfected cells from 9327±466 to 453±15 and in LTRPC3-transfected cells from 14747±988 to 1975±79 (see FIGS. 22E and F, respectively; n=12).

LTRPC3 [2] = target: T1, LTRPC3 (Homo sapiens, UniProt Q9HCF6, R1695Q); experiment: FLIPR Fluo-4 Ca2+ entry in LTRPC3-transfected HEK 293 cells; type: cell-based; conditions: 100 μM Gd^3+, nominally Ca^2+-free medium
T1 construct: the complete open reading frame of LTRPC3 with a C-terminal HA tag was transiently transfected into HEK 293 cells; expressed in transfected cells; host or cells: HEK 293 cells, transient transfection with pcDNA3.1/Hygro-LTRPC3-HA
T1 sequence (Q9HCF6 with tags, fused parts or gaps isoform Q9HCF6-2 R1670Q limits assumed): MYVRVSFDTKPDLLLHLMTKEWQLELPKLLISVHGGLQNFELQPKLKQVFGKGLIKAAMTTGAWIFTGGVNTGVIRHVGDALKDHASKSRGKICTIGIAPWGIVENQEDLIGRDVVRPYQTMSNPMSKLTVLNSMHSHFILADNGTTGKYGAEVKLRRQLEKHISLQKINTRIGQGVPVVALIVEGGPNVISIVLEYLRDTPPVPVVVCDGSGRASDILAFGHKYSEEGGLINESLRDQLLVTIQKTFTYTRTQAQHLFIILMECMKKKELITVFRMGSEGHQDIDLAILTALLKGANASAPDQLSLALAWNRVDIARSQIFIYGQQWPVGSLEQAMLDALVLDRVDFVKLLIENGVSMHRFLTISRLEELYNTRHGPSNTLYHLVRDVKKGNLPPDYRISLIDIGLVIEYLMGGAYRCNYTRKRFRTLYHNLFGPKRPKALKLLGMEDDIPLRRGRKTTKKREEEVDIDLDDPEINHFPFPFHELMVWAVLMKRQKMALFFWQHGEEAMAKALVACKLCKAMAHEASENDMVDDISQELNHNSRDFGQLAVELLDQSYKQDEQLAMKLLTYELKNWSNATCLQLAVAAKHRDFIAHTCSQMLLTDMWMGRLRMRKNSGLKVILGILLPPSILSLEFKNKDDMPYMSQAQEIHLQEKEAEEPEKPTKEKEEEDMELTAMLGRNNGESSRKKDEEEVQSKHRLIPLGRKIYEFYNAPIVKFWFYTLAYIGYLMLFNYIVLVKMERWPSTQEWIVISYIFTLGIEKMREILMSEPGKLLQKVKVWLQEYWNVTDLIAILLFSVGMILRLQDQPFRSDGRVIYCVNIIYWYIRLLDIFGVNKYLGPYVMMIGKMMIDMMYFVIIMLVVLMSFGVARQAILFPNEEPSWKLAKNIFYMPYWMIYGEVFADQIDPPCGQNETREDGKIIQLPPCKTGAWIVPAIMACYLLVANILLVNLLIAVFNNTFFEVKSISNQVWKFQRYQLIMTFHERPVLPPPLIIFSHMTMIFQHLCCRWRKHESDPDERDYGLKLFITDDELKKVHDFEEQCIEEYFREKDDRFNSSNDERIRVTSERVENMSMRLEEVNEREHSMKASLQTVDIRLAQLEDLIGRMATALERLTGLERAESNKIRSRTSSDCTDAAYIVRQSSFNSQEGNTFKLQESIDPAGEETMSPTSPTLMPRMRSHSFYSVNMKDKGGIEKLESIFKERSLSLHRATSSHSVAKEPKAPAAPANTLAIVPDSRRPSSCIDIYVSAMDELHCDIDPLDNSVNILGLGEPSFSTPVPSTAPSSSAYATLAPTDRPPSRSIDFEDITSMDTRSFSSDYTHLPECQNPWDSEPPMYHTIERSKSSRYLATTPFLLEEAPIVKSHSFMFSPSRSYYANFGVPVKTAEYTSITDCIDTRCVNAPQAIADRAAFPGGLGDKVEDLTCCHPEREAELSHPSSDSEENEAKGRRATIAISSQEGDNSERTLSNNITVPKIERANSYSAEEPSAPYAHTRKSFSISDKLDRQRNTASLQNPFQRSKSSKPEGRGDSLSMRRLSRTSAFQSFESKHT

LTRPC3 [3] = target: T1, LTRPC3; experiment: as above; type: cell-based; conditions: for effect on LTRPC3 mediated Ca^2+ currents / entry (in words): 100 μM for 10 min, 1 mM Ca^2+ solution, then 10 mM Ca^2+; for block of LTRPC3 Ca^2+ currents: pre-treatment with 100 μM, 1 mM Ca^2+ present, stimulated by adding 10 mM Ca^2+ (FIG. 19C)
Procedure: […] (A), or 50 μM carbachol (B) was first added to LTRPC3 expressing HEK 293 cells in the absence of external Ca^2+. After 9 minutes, 2 mM Ca^2+ solution was added to the cell medium at the indicated times.Currents for vector transfected HEK 293 cells, and LTRPC3 expressing HEK 293 cells are labeled accordingly. […] Cells loaded with Fluo-4 were incubated in 1 mM Ca^2+ solution and treated with 100 μM of La^3+ (“w/La^3+”), Gd^3+ (“w/Gd^3+”) or without blockers (“w/o blocker”) for 10 min prior to the addition of 10 mM Ca^2+ to the cell medium as indicated. Curves represent averages of three independent experiments, each involving at least 8 wells per condition. Physiometric methods were performed as described in Example 8 herein.
as §1, §2
The lanthamides, gadolinium (Gd^3+) and lanthanum (La^3+), are noneselective Ca^2+-permeable channel blockers, often used as part of the characterization of overexpressed TRP channels. […] In the presence of 1 mM Ca^2+ in which endogenous SOCs is minimally activated (FIG. 18A), pre-treatment with 100 μM of La^3+and Gd^3+blocked LTRPC3 Ca^2+ currents, stimulated by adding 10 mM Ca^2+, by 67 and 39%, respectively.
Additional experiments were performed to further confirm the Ca^2+ store-depleted activation of LTRPC3 using Gd^3+. The effects of 100 μM Gd^3+ on Ca^2+ permeability were tested in vector- and LTRPC3-transfected cells. […] In contrast, 100 μM Gd^3+ inhibited Ca^2+ entry, induced by adding 10 mM Ca^2+, by 53% in LTRPC3-transfected cells (see FIG. 22B). Gd^3+ reduced fluorescence units in vector-transfected cells from 1470±140 to −58±8 and in LTRPC3-transfected cells from 6000±322 to 2080±199 (n=12). Fluorescence values were measured 150 seconds after adding 10 mM Ca^2+ and percent blockade was calculated as 1 minus FLTRPC3−FVector in the presence of Gd^3+ divided by FLTRPC3−FVector without blocker. The effects of Gd^3+ on LTRPC3-mediated Ca^2+ entry, induced by 10 mM Ca^2+, in the presence of thapsigargin or carbachol was also examined. Cells were incubated in nominally Ca^2+-free medium for thapsigargin and carbachol experiments. Gd^3+ inhibited Ca^2+ entry by 51% after depletion of intracellular stores with thapsigargin (see FIG. 22B). Gd^3+ reduced peak fluorescence after 10 mM Ca^2+ addition in vector-transfected cells from 26444±2410 to 1316±60 and in LTRPC3-transfected cells from 37676±2425 to 6783±250 (see FIGS. 22C and D, respectively; n=12). […]

[4] = tested on: nigral dopaminergic neurons; conditions: gel foam implants in the striatum; cited from earlier work
[5] = picogram quantities to the female vomeronasal organ; female recipients; cited from earlier work

Molecule: C/C=C(/C)C(=O)O[C@H]1C(C)=C2[C@H]([C@@H]1OC(=O)CCCCCCC)[C@@](C)(OC(C)=O)C[C@H](OC(=O)CCC)[C@@]1(O)[C@H]2OC(=O)[C@@]1(C)O [thapsigargin]
depletion of Ca^2+ stores (in words) (HEK 293 cells; 2 μM thapsigargin, LTRPC3-HA- and vector-transfected cells): equivalently depleted

inhibition of Ca^2+ entry after depletion of intracellular stores with carbachol (LTRPC3 [2]; 10 mM Ca^2+ addition): 72% | inhibition of Ca^2+ entry after depletion of intracellular stores with thapsigargin (LTRPC3 [2]; 10 mM Ca^2+ addition): 51% | peak Ca^2+ fluorescence in LTRPC3-transfected cells, carbachol (LTRPC3 [2]; store depletion with carbachol, n=12): 1975±79 | peak fluorescence after 10 mM Ca^2+ addition in LTRPC3-transfected cells, thapsigargin (LTRPC3 [2]; store depletion with thapsigargin, n=12): 6783±250 | fluorescence units in LTRPC3-transfected cells in the presence of Gd^3+ (LTRPC3 [3]; 100 μM Gd^3+, 1 mM Ca^2+, 150 seconds after adding 10 mM Ca^2+, n=12): 2080±199 fluorescence units | inhibition of Ca^2+ entry in LTRPC3-transfected cells (percent blockade) (LTRPC3 [3]; 100 μM Gd^3+, cells in 1 mM Ca^2+, entry induced by adding 10 mM Ca^2+, 150 seconds, vector signal subtracted): 53% | effect on LTRPC3 mediated Ca^2+ currents / entry (in words) (LTRPC3 [3]): partially inhibited | block of LTRPC3 Ca^2+ currents (LTRPC3 [3]): 39%
Molecule: [Gd+3] [Gd^3+, gadolinium]
fluorescence units in vector-transfected cells in the presence of Gd^3+ ([1]; 1 mM Ca^2+, 150 seconds after adding 10 mM Ca^2+, n=12): −58±8 fluorescence units | effect on minimal Ca^2+ influx in vector-transfected cells (in words) ([1]; 1 mM Ca^2+, addition of 10 mM Ca^2+): strongly inhibited | peak Ca^2+ fluorescence in vector-transfected cells, carbachol ([1]; store depletion with carbachol, nominally Ca^2+-free medium, n=12): 453±15 | peak fluorescence after 10 mM Ca^2+ addition in vector-transfected cells, thapsigargin ([1]; store depletion with thapsigargin, nominally Ca^2+-free medium, n=12): 1316±60

effect on LTRPC3 mediated Ca^2+ currents / entry (in words) (LTRPC3 [3]): inhibited | block of LTRPC3 Ca^2+ currents (LTRPC3 [3]): 67%
Molecule: [La+3] [La^3+, lanthanum]

Molecule: FGF-2: FGF-2 (basic FGF), fibroblast growth factor
protection of nigral dopaminergic neurons from the toxicity associated with MPTP exposure [4]: near complete protection

Molecule: C[N+](C)(C)CCOC(N)=O [CCh, Carbachol]
intracellular Ca^2+ response (in words) (HEK 293 cells; 50 μM CCh, LTRPC3- and vector-transfected cells): transient and rapid intracellular Ca^2+ increase

Molecule: C[C@@]12C=CC[C@H]1[C@@H]1CCC3=CC(=O)CC[C@]3(C)[C@H]1CC2 [androstadienone]
nervousness, tension and other negative feelings [5]: significant reduction
